Measurements from patent EP1976513B1 (priority 2006, dated 2007).
Where a name gives a salt, the structure may show the parent alone. Read-outs that look alike come from different tables or passages of the source.

Assays:
serotonin transporter = molecular target: T1, serotonin transporter (Rattus norvegicus, UniProt P31652); experiment: biochemical; details: rat synaptosomes, serotonin transporter (SERT)
T1 construct: synaptosomes isolated in a 0.32M sucrose buffer from a male Wistar rat cortex; from tissue; host or cells: male Wistar rat cortex synaptosomes
T1 sequence (P31652 whole entry): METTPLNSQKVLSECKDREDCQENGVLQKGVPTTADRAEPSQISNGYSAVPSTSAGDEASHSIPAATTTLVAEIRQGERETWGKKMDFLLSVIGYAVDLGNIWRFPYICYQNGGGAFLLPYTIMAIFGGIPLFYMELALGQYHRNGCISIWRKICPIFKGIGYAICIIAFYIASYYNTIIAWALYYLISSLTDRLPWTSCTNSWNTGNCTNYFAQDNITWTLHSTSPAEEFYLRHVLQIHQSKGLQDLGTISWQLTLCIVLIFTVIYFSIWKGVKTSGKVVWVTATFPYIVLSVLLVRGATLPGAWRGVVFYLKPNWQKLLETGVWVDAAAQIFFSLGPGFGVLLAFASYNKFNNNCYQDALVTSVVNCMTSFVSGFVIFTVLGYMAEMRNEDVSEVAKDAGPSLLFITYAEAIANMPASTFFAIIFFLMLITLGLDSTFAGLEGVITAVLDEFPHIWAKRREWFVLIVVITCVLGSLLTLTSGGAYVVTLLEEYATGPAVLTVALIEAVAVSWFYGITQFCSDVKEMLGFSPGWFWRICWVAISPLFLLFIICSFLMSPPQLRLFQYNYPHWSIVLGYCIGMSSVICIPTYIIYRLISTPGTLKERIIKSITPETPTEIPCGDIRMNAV

dopamine transporter = molecular target: T2, dopamine transporter (Rattus norvegicus, UniProt P23977); experiment: biochemical; details: rat synaptosomes, dopamine transporter (DAT)
T2 construct: synaptosomes isolated in a 0.32 M sucrose buffer from a male Wistar rat striatum; from tissue; host or cells: male Wistar rat striatum synaptosomes
T2 sequence (P23977 whole entry): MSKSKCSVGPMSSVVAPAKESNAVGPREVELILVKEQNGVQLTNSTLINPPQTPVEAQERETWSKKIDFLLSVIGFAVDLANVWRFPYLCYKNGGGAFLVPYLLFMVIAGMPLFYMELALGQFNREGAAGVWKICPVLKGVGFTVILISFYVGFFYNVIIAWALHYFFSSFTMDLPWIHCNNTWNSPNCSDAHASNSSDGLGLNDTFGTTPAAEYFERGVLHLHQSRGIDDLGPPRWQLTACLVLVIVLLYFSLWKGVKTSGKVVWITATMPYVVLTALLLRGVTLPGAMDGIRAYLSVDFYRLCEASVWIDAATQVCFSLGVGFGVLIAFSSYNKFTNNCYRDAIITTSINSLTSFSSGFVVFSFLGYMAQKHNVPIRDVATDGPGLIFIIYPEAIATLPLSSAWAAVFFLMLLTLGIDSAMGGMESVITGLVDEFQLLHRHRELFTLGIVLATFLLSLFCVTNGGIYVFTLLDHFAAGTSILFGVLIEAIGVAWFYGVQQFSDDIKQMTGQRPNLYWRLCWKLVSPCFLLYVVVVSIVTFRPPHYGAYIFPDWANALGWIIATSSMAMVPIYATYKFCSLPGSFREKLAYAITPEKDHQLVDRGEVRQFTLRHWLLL

[1] = molecular target: T3, norepinephrine transporter (Rattus norvegicus, UniProt Q63380); experiment: biochemical; assay type: biochemical; details: rat synaptosomes, norepinephrine transporter (NET)
T3 construct: synaptosomes isolated in a 0.32 M sucrose buffer from a male Wistar rat hypothalamus; from tissue; host or cells: male Wistar rat hypothalamus synaptosomes
T3 sequence (Q63380 1-617): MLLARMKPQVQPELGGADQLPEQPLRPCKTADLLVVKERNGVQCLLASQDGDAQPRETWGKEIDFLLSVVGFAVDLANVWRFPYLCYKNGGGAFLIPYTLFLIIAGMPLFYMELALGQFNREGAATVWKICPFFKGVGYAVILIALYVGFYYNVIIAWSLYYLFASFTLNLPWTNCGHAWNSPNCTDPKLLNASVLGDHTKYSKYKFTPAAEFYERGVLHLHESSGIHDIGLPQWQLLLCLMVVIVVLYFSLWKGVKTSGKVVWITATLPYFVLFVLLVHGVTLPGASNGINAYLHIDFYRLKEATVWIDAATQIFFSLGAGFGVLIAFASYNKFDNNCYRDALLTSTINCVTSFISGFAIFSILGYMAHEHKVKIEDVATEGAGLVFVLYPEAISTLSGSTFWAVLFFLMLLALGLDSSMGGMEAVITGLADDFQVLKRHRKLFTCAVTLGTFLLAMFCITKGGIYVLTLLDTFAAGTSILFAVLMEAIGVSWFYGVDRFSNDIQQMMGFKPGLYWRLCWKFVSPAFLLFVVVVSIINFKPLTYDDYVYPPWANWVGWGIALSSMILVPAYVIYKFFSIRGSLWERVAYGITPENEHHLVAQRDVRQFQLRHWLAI

[2] = molecular target: T4, 5-HT Transporter (SERT) Sites in Mouse Brain (Mus musculus, UniProt Q60857); experiment: Ex vivo [3H] citalopram binding after oral dosing; design: species or system C57BL/6 mice; details: for % Transporter Occupancy, SERT: 60 minutes after treatment, vs vehicle; for Mean Specific Binding (dpm) ± S.E.M., SERT: mice sacrificed 60 minutes after treatment, cortex
T4 construct: Whole brains were removed and cortex and striata dissected out; from tissue; host or cells: C57BL/6 mouse frontal cortex homogenate
T4 sequence (Q60857 whole entry): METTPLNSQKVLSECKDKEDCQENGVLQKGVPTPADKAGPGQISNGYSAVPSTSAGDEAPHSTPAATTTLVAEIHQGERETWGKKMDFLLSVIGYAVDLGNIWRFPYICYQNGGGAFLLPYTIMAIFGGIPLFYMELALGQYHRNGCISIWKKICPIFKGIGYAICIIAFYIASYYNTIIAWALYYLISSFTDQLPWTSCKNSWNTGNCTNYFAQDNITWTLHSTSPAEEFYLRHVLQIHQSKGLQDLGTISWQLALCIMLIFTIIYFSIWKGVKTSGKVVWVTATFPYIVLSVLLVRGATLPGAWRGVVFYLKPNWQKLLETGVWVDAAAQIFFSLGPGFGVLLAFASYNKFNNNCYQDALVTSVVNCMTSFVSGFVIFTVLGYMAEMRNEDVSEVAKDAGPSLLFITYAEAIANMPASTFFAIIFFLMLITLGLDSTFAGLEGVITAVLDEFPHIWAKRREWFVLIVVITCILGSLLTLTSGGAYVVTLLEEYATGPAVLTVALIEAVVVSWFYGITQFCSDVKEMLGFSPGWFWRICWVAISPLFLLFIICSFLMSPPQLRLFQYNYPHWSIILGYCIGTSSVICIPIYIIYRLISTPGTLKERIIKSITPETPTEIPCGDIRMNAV

[3] = molecular target: T5, DA Transporter (DAT) Sites in Mouse Brain (Mus musculus, UniProt Q61327); experiment: Ex vivo [3H] WIN 35428 binding after oral dosing; design: species or system C57BL/6 mice; details: for % Transporter Occupancy, DAT: 60 minutes after treatment, vs vehicle; for Mean Specific Binding (dpm) ± S.E.M., DAT: mice sacrificed 60 minutes after treatment, striatum
T5 construct: Striatum was used to determine occupancy of DA transporter sites; from tissue; host or cells: C57BL/6 mouse striatum homogenate
T5 sequence (Q61327 whole entry): as the sequence (P23977 whole entry) above, with S21P, A57V, A194S, H600R, L619V counted along it

Rats [4] = experiment: Rat forced swim test; assay type: in vivo; details: PO, 24 hours and 30-60 minutes before the 5 minute test
mice [5] = experiment: Mouse tail suspension test; assay type: in vivo; details: PO, 30-60 minutes before the test, 5 minutes recording
mice [6] = experiment: Mouse locomotor activity; assay type: in vivo; details: PO
Procedure: (§1) In order to ensure effects of the compounds on immobility time were not related to a general stimulant effect on baseline motor activity, locomotor activity was assessed using photocell monitored cages (Med-Associates Inc.). Each test chamber was equipped with infrared photocell beams to measure movement of the animals. Horizontal and vertical activity were measured
(§2) Rats or mice were pretreated with vehicle or test compounds and placed back in home cage, following which they will be individually placed in locomotor cages and activity was monitored in 5 minute intervals for up to 60 min.
(§3) Data were analyzed by one way analysis of variance (ANOVA) followed by post-hoc comparisons where appropriate. An effect was considered significant if p < 0.05. Data are represented as the mean and standard error to the mean (s.e.m).

Rats [7] = experiment: Rat locomotor activity; assay type: in vivo; details: PO
Procedure: as §1, §2, §3

[8] = molecular target: Norepinephrine Transporter (NET) Sites in Mouse Brain (Mus musculus, UniProt O55192); details: PO; for % Transporter Occupancy, NET: 60 minutes after treatment, vs vehicle; for Mean Specific Binding (dpm) ± S.E.M., NET: mice sacrificed 60 minutes after treatment, cortex
Chain of Norepinephrine Transporter (NET) Sites in Mouse Brain (O55192 whole entry): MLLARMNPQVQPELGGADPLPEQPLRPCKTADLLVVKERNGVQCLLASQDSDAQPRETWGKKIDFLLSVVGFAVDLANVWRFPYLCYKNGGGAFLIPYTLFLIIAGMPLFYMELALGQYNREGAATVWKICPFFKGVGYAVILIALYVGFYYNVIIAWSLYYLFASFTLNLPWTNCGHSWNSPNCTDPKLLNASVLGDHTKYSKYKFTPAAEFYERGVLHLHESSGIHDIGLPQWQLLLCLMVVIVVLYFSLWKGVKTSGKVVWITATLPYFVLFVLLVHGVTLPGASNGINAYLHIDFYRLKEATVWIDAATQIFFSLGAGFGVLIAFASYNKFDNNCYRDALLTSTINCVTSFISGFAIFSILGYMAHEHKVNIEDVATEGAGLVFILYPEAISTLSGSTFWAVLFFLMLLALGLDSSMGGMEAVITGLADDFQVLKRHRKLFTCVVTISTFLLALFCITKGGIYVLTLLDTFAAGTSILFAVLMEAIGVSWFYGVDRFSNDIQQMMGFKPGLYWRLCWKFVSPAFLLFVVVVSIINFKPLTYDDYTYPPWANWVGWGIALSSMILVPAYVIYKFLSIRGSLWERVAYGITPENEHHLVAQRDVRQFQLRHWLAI

[9] = literature; cited from earlier work
serotonin uptake sites = serotonin uptake sites (Homo sapiens, UniProt P31645); details: compared with the racemic compound; U.S. Patent No. 6,372,919; cited from earlier work
[10] = molecular target: human serotonin reuptake transporter (Homo sapiens, UniProt P31645); experiment: cell-based; details: recombinant human serotonin transporter (SERT)
Chain of human serotonin reuptake transporter (P31645 whole entry): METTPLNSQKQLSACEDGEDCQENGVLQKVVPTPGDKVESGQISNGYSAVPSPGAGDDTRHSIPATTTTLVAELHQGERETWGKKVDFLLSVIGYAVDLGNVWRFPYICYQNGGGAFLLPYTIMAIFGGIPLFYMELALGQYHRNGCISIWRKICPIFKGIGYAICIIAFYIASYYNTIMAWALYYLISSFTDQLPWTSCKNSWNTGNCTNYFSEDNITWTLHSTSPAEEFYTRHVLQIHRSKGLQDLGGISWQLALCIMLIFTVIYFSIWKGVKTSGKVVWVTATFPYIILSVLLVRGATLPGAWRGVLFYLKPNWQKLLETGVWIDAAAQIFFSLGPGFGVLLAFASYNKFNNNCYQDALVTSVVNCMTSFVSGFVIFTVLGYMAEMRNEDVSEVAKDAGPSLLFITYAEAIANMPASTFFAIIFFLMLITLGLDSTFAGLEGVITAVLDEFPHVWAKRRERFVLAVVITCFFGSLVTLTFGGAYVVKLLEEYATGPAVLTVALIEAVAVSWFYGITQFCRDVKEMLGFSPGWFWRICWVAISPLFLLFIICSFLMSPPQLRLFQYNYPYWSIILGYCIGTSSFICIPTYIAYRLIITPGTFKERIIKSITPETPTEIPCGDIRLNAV

[11] = molecular target: T6, human dopamine reuptake transporter (Homo sapiens, UniProt Q01959); experiment: cell-based; details: recombinant human dopamine transporter (DAT); read-out: Human IC50 (nM) hDAT
T6 construct: expressed in transfected cells; host or cells: CHO-K1 or HEK293
T6 sequence (Q01959 whole entry): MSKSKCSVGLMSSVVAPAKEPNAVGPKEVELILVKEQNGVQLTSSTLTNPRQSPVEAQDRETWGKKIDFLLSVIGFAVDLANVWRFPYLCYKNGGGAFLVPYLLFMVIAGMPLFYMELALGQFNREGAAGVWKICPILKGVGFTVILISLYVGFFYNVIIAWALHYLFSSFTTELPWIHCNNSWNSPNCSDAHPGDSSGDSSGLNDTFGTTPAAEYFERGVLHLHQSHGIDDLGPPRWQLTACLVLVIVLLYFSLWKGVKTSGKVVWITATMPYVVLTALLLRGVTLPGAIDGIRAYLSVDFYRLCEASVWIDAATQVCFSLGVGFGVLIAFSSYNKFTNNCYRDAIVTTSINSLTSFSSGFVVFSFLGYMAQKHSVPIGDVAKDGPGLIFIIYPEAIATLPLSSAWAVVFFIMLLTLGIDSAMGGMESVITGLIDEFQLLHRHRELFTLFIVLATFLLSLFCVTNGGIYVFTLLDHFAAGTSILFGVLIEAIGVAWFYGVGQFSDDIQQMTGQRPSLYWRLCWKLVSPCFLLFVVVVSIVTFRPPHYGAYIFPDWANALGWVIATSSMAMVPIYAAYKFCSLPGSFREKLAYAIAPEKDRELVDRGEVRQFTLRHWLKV

[12] = molecular target: human norepinephrine reuptake transporter (Homo sapiens, UniProt P23975); experiment: cell-based; details: recombinant human norepinephrine transporter (NET); read-out: Human IC50 (nM) hNET
Chain of human norepinephrine reuptake transporter (P23975 whole entry): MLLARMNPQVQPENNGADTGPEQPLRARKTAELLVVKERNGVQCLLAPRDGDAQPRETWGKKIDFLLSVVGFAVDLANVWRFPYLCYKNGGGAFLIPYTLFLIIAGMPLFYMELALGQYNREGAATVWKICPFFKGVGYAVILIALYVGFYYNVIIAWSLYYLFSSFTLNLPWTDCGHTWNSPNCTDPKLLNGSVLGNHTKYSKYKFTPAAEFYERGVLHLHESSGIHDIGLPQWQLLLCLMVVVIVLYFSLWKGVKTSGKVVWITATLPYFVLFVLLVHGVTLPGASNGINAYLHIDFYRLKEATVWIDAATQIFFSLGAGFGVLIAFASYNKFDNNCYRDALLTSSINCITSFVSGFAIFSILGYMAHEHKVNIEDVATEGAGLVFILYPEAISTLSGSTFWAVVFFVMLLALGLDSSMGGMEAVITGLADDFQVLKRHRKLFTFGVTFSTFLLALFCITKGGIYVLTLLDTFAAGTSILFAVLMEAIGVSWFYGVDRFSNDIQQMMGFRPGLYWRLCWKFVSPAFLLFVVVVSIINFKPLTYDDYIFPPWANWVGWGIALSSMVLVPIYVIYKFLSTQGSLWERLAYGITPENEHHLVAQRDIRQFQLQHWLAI

[13] = read-out: Human IC50 (nM) hSERT

`CC(N(C)C)C1(c2ccc3ccccc3c2)CCCCC1` (single isomer, unassigned) [56 E1, N,N-dimethyl-1-(1-(naphthalen-2-yl)cyclohexyl)ethanamine] showed an IC50 (serotonin transporter; Rat IC50 (nM) rSERT) of 2.9 nM, an IC50 (dopamine transporter; Rat IC50 (nM) rDAT) of 24 nM and an IC50 ([1]; Rat IC50 (nM) rNET) of 2.3 nM. For the same molecule, the “% Transporter Occupancy, SERT” value ([2]; 1 mg/kg) was 19%, the “Mean Specific Binding (dpm) ± S.E.M., SERT” value (“Mean Specific Binding … SERT” for short) ([2]; 1 mg/kg) was 2625 ± 138 dpm and the “% Transporter Occupancy, SERT” value ([2]; 3 mg/kg) was 58%. For the same molecule, the “Mean Specific Binding … SERT” value ([2]; 3 mg/kg) was 1346 ± 109 dpm, the “% Transporter Occupancy, SERT” value ([2]; 10 mg/kg) was 91% and the “Mean Specific Binding … SERT” value ([2]; 10 mg/kg) was 278 ± 42 dpm. The “% Transporter Occupancy, SERT” value ([2]; 30 mg/kg) was 95%, the “Mean Specific Binding … SERT” value ([2]; 30 mg/kg) was 151 ± 60 dpm and the “% Transporter Occupancy, DAT” value ([3]; 1 mg/kg) was 5%. The “Mean Specific Binding (dpm) ± S.E.M., DAT” value (from here on “Mean Specific Binding … DAT”) ([3]; 1 mg/kg) was 41561 ± 1611 dpm, the “% Transporter Occupancy, DAT” value ([3]; 3 mg/kg) was 4% and the “Mean Specific Binding … DAT” value ([3]; 3 mg/kg) was 42127 ± 2130 dpm. For the same molecule, the “% Transporter Occupancy, DAT” value ([3]; 10 mg/kg) was 23%, the “Mean Specific Binding … DAT” value ([3]; 10 mg/kg) was 33478 ± 1779 dpm and the “% Transporter Occupancy, DAT” value ([3]; 30 mg/kg) was 67%. For the same molecule, the “Mean Specific Binding … DAT” value ([3]; 30 mg/kg) was 14637 ± 1567 dpm, the “Rat Forced Swim (Means ± S.E.M.) Climbing” value (Rats [4]; 3 mg/kg) was 7.1 ± 1.6 and the “Rat Forced Swim (Means ± S.E.M.) Immobility” value (Rats [4]; 3 mg/kg) was 52.2 ± 1.6. The “Rat Forced Swim (Means ± S.E.M.) Swimming” value (Rats [4]; 3 mg/kg) was 0.3 ± 0.2, the “Rat Forced Swim (Means ± S.E.M.) Climbing” value (Rats [4]; 10 mg/kg) was 8.6 ± 0.9 and the “Rat Forced Swim (Means ± S.E.M.) Immobility” value (Rats [4]; 10 mg/kg) was 50.7 ± 1.0. The “Rat Forced Swim (Means ± S.E.M.) Swimming” value (Rats [4]; 10 mg/kg) was 0.8 ± 0.3, the “Rat Forced Swim (Means ± S.E.M.) Climbing” value (Rats [4]; 30 mg/kg) was 17.9 ± 2.4 and the “Rat Forced Swim (Means ± S.E.M.) Immobility” value (Rats [4]; 30 mg/kg) was 40.4 ± 2.7. The “Rat Forced Swim (Means ± S.E.M.) Swimming” value (Rats [4]; 30 mg/kg) was 1.0 ± 0.4, the “Mouse Tail Suspension Mean Immobility Time ± S.E.M.” value (mice [5]; 3 mg/kg) was 184.0 ± 4.8 and the “Mouse Tail Suspension Mean Immobility Time ± S.E.M.” value (mice [5]; 10 mg/kg) was 174.8 ± 6.1. For the same molecule, the “Mouse Tail Suspension Mean Immobility Time ± S.E.M.” value (mice [5]; 30 mg/kg) was 141.9 ± 7.4, the “Mouse Locomotor Activity Total Distance Traveled ± S.E.M.” value (mice [6]; 3 mg/kg) was 410.2 ± 89.3 and the “Mouse Locomotor Activity Total Distance Traveled ± S.E.M.” value (mice [6]; 10 mg/kg) was 440.2 ± 62.6. For the same molecule, the “Mouse Locomotor Activity Total Distance Traveled ± S.E.M.” value (mice [6]; 30 mg/kg) was 252.2 ± 55.8, the “Rat Locomotor Activity Total Distance Traveled ± S.E.M.” value (Rats [7]; 3 mg/kg) was 1227.9 ± 84.4 and the “Rat Locomotor Activity Total Distance Traveled ± S.E.M.” value (Rats [7]; 10 mg/kg) was 1230.8 ± 64.8. The “Rat Locomotor Activity Total Distance Traveled ± S.E.M.” value (Rats [7]; 30 mg/kg) was 1359.8 ± 132.7, the “% Transporter Occupancy, NET” value ([8]; 1 mg/kg) was 20% and the “Mean Specific Binding (dpm) ± S.E.M., NET” value (“Mean Specific Binding … NET” for short) ([8]; 1 mg/kg) was 616 ± 50 dpm. The “% Transporter Occupancy, NET” value ([8]; 3 mg/kg) was 52%, the “Mean Specific Binding … NET” value ([8]; 3 mg/kg) was 368 ± 17 dpm and the “% Transporter Occupancy, NET” value ([8]; 10 mg/kg) was 86%. For the same molecule, the “Mean Specific Binding … NET” value ([8]; 10 mg/kg) was 106 ± 20 dpm, the “% Transporter Occupancy, NET” value ([8]; 30 mg/kg) was 98% and the “Mean Specific Binding … NET” value ([8]; 30 mg/kg) was 19 ± 2 dpm.

Work on `CC(N(C)C)C1(c2ccc3ccccc3c2)CCCCC1` (single isomer, unassigned) [56 E2, N,N-dimethyl-1-(1-(naphthalen-2-yl)cyclohexyl)ethanamine] yielded an IC50 (serotonin transporter; Rat IC50 (nM) rSERT) of 120 nM, an IC50 (dopamine transporter; Rat IC50 (nM) rDAT) of 100 nM and an IC50 ([1]; Rat IC50 (nM) rNET) of 79 nM.

In the case of `CNC[C@@]1(c2ccc3ccccc3c2)CCCC[C@H]1O` (single isomer, unassigned) [147 E1], the IC50 (serotonin transporter; read-out: Rat IC50 (nM) rSERT) is reported as 18 nM, the IC50 (dopamine transporter; read-out: Rat IC50 (nM) rDAT) is reported as 1200 nM and the IC50 ([1]; read-out: Rat IC50 (nM) rNET) is reported as 370 nM.

`CNC[C@]1(c2ccc3ccccc3c2)CCCC[C@@H]1O` (single isomer, unassigned) [147 E2] gave an IC50 (serotonin transporter; read-out: Rat IC50 (nM) rSERT) of 1700 nM, an IC50 (dopamine transporter; read-out: Rat IC50 (nM) rDAT) of 1500 nM and an IC50 ([1]; read-out: Rat IC50 (nM) rNET) of 1200 nM.

For `CNC[C@@]1(c2ccc3ccccc3c2)CCCC[C@@H]1O` (single isomer, unassigned) [148 E2], the IC50 (serotonin transporter; read-out: Rat IC50 (nM) rSERT) was 330 nM, the IC50 (dopamine transporter; read-out: Rat IC50 (nM) rDAT) was 680 nM and the IC50 ([1]; read-out: Rat IC50 (nM) rNET) was 4900 nM.

For `Clc1ccc(C23CNCC2C3)cc1Cl` (single isomer, unassigned; (+)) [DOV 21,947, (+)-1-(3,4-dichlorophenyl)-3-azabicyclo[3.1.0]hexane], the “immobility in the tail suspension test” value [9] is given as “dose-dependent reduction in immobility” and the “affinity for the serotonin uptake sites” value (serotonin uptake sites) is given as “significantly greater affinity”.

For `NCC1(c2ccc(F)c(F)c2)CCCCC1` [Compound 30, (1-(3,4-difluorophenyl)cyclohexyl)methanamine hydrochloride], the IC50 [10, 13] was 4520 nM, the IC50 [11] was 5870 nM and the IC50 [12] was over 10000 nM.

For `NCC1(c2ccccc2)CCCCC1` [Compound 31, (1-phenylcyclohexyl)methaneamine hydrochloride], the IC50 [10, 13] was over 10000 nM, the IC50 [11] was over 10000 nM and the IC50 [12] was over 10000 nM.

Work on `NCC1(c2ccc(Cl)cc2Cl)CCCCC1` [Compound 38, (1-(2,4-dichlorophenyl)cyclohexyl)methanamine] yielded an IC50 ([10]; Human IC50 (nM) hSERT) of 472 nM, an IC50 [11] of 9650 nM and an IC50 [12] of over 10000 nM.

`CNCC1(c2ccccc2)CCCCC1` [Compound 80, N-methyl(1-phenylcyclohexyl)methanamine (hydrochloride)] showed an IC50 [10, 13] of 9170 nM, an IC50 [11] of over 10000 nM and an IC50 [12] of over 10000 nM.

Molecule `CC1(O)CCC(CN)(c2ccc3ccccc3c2)CC1` (centres unmarked) [Compound 209, 4-(aminomethyl)-1-methyl-4-(naphthalen-2-yl)cyclohexanol] has an IC50 [10, 13] of 1160 nM, an IC50 [11] of 4760 nM and an IC50 [12] of over 10000 nM.

`CC1(O)CCC(CN)(c2ccc(OC(F)(F)F)cc2)CC1` (centres unmarked) [Compound 219, 4-(aminomethyl)-1-methyl-4-(4-(trifluoromethoxy)phenyl)-cyclohexanol] gave an IC50 [10, 13] of 269 nM, an IC50 [11] of over 10000 nM and an IC50 [12] of over 10000 nM.

In the case of `CNCC1(c2ccc3c(c2)OCO3)CCC(O)CC1` (centres unmarked) [Compound 237, 4-(benzo[d][1,3]dioxol-5-yl)-4-((methylamino)methyl)cyclohexanol], the IC50 [10, 13] is reported as 7300 nM, the IC50 [11] is reported as 9130 nM and the IC50 [12] is reported as over 10000 nM.

In the case of `CNCC1(c2ccc(OC(F)(F)F)cc2)CCC(O)CC1` (centres unmarked) [Compound 249, 4-((methylamino)methyl)-4-(4-(trifluoromethoxy)phenyl)cyclohexanol], the IC50 [10, 13] is reported as 405 nM, the IC50 [11] is reported as over 10000 nM and the IC50 [12] is reported as over 10000 nM.

With `CN(C)CC1(c2ccc(Cl)c(Cl)c2)CCC(F)(F)CC1` [Compound 269, 1-(1-(3,4-dichlorophenyl)-4,4-difluorocyclohexyl)-N,N-dimethylmethanamine] the IC50 [10, 13] was 787 nM, the IC50 [11] was under 1 nM and the IC50 [12] was 36 nM.
